Laboratory results: the kinase profiling compilation of Christmann-Franck et al. (2016)

Assays:
Experiment in all cases: KINOMEscan competition binding
Settings in all cases: compound 10.0 µM
CDK17 (human) = CDK17 (human) (UniProt Q00537)
ERBB2 (human) = ERBB2 (human) (UniProt P04626)
RPS6KA2 KD2 (human) = RPS6KA2 KD2 (human) (UniProt Q15349)
LIMK1 (human) = LIMK1 (human) (UniProt P53667)
ROCK2 (human) = ROCK2 (human) (UniProt O75116)
[1] = tested on: ABL1 (human), P00519 [M351T]
STK39 (human) = STK39 (human) (UniProt Q9UEW8)
RIOK2 (human) = RIOK2 (human) (UniProt Q9BVS4)
BMPR1B (human) = BMPR1B (human) (UniProt O00238)
ROS1 (human) = ROS1 (human) (UniProt P08922)
MAP3K6 (human) = MAP3K6 (human) (UniProt O95382)
[2] = tested on: KIT (human), P10721 [L576P]
SRPK1 (human) = SRPK1 (human) (UniProt Q96SB4)
[3] = tested on: KIT (human), P10721 [A829P]
MAP2K4 (human) = MAP2K4 (human) (UniProt P45985)
NTRK2 (human) = NTRK2 (human) (UniProt Q16620)
BMPR2 (human) = BMPR2 (human) (UniProt Q13873)
FES (human) = FES (human) (UniProt P07332)
RPS6KB1 (human) = RPS6KB1 (human) (UniProt P23443)
CDKL5 (human) = CDKL5 (human) (UniProt O76039)
[4] = tested on: BRAF (human), P15056 [V600E]
CDC2L2 (human) = CDC2L2 (human) (UniProt Q9UQ88)
NEK2 (human) = NEK2 (human) (UniProt P51955)
MAP2K6 (human) = MAP2K6 (human) (UniProt P52564)
CAMK1G (human) = CAMK1G (human) (UniProt Q96NX5)
MAPK10 (human) = MAPK10 (human) (UniProt P53779)
NLK (human) = NLK (human) (UniProt Q9UBE8)
[5] = tested on: EGFR (human), P00533 [P753S; 747-752 del]
NTRK3 (human) = NTRK3 (human) (UniProt Q16288)
DYRK1A (human) = DYRK1A (human) (UniProt Q13627)
PIK3C2G (human) = PIK3C2G (human) (UniProt O75747)
MARK1 (human) = MARK1 (human) (UniProt Q9P0L2)
PKMYT1 (human) = PKMYT1 (human) (UniProt Q99640)
[6] = tested on: KIT (human), P10721 [D816V]
PAK7 (human) = PAK7 (human) (UniProt Q9P286)
EIF2AK1 (human) = EIF2AK1 (human) (UniProt Q9BQI3)
STK25 (human) = STK25 (human) (UniProt O00506)
TAOK1 (human) = TAOK1 (human) (UniProt Q7L7X3)
GAK (human) = GAK (human) (UniProt O14976)
CDK5 (human) = CDK5 (human) (UniProt Q00535)
STK33 (human) = STK33 (human) (UniProt Q9BYT3)
MINK1 (human) = MINK1 (human) (UniProt Q8N4C8)

MAP2K6 (human), sequence (P52564 whole entry, looked up): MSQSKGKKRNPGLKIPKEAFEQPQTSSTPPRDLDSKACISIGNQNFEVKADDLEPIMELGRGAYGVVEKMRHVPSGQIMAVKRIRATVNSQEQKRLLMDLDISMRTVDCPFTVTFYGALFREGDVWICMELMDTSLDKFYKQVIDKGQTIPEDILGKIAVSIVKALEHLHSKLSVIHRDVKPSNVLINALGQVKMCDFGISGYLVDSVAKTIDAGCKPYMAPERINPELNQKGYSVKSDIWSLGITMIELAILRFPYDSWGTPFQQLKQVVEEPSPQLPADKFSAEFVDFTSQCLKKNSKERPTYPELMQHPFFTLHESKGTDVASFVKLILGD
TAOK1 (human), sequence (Q7L7X3 whole entry, looked up): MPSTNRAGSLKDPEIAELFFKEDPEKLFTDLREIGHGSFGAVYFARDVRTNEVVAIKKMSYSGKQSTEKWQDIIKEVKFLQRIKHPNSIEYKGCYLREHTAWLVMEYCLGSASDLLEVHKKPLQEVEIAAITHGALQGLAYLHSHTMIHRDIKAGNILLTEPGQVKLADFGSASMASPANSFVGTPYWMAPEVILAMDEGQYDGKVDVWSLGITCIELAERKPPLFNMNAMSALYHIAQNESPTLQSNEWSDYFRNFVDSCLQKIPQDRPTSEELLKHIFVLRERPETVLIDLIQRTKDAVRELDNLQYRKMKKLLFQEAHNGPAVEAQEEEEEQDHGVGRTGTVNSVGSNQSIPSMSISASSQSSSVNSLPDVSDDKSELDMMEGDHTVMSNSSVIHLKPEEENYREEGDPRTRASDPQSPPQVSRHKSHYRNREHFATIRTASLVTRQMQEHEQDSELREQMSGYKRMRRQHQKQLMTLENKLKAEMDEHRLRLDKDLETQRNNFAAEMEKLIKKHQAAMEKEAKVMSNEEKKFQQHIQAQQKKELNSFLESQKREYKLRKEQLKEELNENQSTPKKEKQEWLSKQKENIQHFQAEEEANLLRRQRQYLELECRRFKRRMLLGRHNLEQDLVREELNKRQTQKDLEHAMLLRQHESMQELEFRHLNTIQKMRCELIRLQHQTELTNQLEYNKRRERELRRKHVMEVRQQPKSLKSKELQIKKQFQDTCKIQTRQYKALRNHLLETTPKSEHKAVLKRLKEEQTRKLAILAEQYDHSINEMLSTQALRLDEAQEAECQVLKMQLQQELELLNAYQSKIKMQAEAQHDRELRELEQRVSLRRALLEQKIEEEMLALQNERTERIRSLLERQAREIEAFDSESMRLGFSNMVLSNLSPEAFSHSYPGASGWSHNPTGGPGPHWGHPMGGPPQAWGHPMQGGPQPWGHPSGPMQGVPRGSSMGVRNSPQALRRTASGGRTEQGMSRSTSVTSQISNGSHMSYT
EIF2AK1 (human), sequence (Q9BQI3 whole entry, looked up): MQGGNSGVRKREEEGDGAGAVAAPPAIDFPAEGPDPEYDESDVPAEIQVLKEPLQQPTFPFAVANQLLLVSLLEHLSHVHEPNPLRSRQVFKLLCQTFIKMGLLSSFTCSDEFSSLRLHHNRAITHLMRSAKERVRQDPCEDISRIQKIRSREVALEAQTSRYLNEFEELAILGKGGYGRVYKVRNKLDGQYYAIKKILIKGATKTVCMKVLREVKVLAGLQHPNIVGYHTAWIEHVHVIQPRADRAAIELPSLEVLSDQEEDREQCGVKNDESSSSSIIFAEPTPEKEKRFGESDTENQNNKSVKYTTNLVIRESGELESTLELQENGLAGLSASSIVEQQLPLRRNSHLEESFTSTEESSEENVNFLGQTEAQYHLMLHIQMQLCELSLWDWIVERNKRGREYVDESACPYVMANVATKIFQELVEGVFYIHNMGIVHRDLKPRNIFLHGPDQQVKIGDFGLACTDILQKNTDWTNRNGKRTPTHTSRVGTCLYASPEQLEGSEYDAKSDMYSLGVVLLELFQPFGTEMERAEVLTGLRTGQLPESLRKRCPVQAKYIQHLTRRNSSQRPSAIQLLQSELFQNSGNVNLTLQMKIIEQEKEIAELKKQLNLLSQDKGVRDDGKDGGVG
MAPK10 (human), sequence (P53779 whole entry, looked up): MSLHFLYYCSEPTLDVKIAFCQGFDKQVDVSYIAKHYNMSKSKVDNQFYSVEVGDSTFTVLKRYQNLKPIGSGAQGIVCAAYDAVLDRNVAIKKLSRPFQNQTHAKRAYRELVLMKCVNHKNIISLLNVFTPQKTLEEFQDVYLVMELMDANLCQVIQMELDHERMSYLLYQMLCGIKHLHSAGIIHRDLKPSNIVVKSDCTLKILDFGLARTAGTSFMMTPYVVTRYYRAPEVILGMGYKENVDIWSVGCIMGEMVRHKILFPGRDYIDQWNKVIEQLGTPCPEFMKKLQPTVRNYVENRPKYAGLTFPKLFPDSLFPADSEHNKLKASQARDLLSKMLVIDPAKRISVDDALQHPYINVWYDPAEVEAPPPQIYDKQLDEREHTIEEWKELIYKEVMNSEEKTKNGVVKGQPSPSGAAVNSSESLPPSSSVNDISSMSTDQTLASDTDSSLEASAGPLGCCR
ERBB2 (human), sequence (P04626 whole entry, looked up): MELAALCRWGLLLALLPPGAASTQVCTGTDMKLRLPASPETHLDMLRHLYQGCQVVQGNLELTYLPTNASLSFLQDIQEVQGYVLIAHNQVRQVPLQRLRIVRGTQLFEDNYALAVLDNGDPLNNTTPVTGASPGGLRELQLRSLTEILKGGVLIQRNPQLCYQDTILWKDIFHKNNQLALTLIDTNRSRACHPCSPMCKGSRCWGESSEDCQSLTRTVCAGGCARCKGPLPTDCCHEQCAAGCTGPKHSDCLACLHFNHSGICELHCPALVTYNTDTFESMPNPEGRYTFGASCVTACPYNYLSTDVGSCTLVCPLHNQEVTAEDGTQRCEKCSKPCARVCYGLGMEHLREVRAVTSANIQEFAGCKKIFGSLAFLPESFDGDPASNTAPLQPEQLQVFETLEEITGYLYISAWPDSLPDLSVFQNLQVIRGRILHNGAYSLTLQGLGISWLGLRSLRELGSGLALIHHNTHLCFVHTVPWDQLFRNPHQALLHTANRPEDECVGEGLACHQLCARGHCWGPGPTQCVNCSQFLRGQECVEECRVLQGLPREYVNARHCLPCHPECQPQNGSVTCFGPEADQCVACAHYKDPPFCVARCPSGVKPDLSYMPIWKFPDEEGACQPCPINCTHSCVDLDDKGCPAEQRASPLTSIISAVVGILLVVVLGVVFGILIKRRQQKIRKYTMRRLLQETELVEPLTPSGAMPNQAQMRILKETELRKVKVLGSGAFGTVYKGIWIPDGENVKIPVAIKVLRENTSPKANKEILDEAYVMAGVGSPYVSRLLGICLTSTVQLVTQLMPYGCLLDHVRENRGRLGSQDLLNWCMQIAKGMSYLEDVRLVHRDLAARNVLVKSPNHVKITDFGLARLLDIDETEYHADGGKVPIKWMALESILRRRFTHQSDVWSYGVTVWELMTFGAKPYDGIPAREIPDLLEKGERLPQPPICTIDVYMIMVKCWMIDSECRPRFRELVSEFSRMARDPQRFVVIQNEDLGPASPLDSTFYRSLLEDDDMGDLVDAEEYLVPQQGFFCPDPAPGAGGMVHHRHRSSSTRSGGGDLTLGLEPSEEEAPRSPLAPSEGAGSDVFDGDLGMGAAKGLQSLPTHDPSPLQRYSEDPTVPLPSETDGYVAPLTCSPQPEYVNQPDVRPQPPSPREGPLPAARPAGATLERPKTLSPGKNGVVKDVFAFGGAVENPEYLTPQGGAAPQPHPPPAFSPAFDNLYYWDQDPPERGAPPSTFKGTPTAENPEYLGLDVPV
PKMYT1 (human), sequence (Q99640 whole entry, looked up): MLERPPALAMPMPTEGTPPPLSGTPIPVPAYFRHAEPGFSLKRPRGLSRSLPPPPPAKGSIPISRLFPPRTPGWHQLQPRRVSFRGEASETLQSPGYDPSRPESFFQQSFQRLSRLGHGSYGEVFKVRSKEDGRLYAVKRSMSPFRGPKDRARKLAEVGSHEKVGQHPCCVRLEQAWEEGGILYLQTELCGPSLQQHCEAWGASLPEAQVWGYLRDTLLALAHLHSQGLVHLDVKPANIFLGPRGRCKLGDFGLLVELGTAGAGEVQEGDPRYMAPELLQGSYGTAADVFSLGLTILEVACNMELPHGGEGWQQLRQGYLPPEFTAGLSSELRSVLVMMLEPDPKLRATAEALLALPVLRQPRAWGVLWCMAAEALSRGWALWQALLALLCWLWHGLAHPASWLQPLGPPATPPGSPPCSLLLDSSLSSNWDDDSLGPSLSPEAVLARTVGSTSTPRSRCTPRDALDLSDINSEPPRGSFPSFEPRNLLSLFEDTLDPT
STK25 (human), sequence (O00506 whole entry, looked up): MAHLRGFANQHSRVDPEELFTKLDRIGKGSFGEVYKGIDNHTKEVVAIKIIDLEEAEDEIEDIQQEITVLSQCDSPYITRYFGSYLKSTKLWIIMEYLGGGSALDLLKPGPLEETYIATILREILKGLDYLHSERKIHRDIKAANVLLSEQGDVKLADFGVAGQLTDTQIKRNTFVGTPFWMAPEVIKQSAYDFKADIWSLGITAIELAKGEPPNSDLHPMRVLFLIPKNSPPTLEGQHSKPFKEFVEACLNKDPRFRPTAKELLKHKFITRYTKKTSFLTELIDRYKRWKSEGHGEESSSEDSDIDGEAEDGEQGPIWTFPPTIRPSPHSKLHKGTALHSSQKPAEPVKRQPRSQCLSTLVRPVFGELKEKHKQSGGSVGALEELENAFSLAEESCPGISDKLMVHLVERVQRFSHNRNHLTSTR
MAP2K4 (human), sequence (P45985 whole entry, looked up): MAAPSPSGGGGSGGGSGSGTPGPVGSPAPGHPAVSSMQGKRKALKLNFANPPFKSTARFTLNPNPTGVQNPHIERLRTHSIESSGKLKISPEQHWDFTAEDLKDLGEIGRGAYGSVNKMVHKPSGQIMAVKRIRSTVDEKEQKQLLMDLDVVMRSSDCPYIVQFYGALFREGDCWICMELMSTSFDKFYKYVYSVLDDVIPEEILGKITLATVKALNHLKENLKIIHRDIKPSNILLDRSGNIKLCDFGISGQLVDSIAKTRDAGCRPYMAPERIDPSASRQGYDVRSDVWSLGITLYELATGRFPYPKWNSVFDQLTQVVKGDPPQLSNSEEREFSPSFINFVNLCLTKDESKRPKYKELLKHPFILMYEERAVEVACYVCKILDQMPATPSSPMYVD

For `Cc1cc([C@@H](C)Nc2ccccc2C(=O)O)c2nc(N3CCOCC3)cc(=O)n2c1`, the kinase still bound, per cent of control (CDK17 (human)) was 100%, the kinase still bound, per cent of control (ERBB2 (human)) was 96% and the kinase still bound, per cent of control (RPS6KA2 KD2 (human)) was 100%. The kinase still bound, per cent of control (LIMK1 (human)) was 100%, the kinase still bound, per cent of control (ROCK2 (human)) was 89% and the kinase still bound, per cent of control [1] was 100%. It also gave a kinase still bound, per cent of control (STK39 (human)) of 58%, a kinase still bound, per cent of control (RIOK2 (human)) of 35% and a kinase still bound, per cent of control (BMPR1B (human)) of 89%. The kinase still bound, per cent of control (ROS1 (human)) was 84%, the kinase still bound, per cent of control (MAP3K6 (human)) was 94% and the kinase still bound, per cent of control [2] was 90%. The kinase still bound, per cent of control (SRPK1 (human)) was 100%, the kinase still bound, per cent of control [3] was 87% and the kinase still bound, per cent of control (MAP2K4 (human)) was 70%. The kinase still bound, per cent of control (NTRK2 (human)) was 81%, the kinase still bound, per cent of control (BMPR2 (human)) was 84% and the kinase still bound, per cent of control (FES (human)) was 100%. It also gave a kinase still bound, per cent of control (RPS6KB1 (human)) of 100%, a kinase still bound, per cent of control (CDKL5 (human)) of 82% and a kinase still bound, per cent of control [4] of 80%. It also gave a kinase still bound, per cent of control (CDC2L2 (human)) of 100%, a kinase still bound, per cent of control (NEK2 (human)) of 100% and a kinase still bound, per cent of control (MAP2K6 (human)) of 91%. The kinase still bound, per cent of control (CAMK1G (human)) was 100%, the kinase still bound, per cent of control (MAPK10 (human)) was 66% and the kinase still bound, per cent of control (NLK (human)) was 100%. For the same compound, the kinase still bound, per cent of control [5] was 100%, the kinase still bound, per cent of control (NTRK3 (human)) was 75% and the kinase still bound, per cent of control (DYRK1A (human)) was 99%. It also gave a kinase still bound, per cent of control (PIK3C2G (human)) of 16%, a kinase still bound, per cent of control (MARK1 (human)) of 90% and a kinase still bound, per cent of control (PKMYT1 (human)) of 99%. The kinase still bound, per cent of control [6] was 100%, the kinase still bound, per cent of control (PAK7 (human)) was 92% and the kinase still bound, per cent of control (EIF2AK1 (human)) was 100%. It also gave a kinase still bound, per cent of control (STK25 (human)) of 100%, a kinase still bound, per cent of control (TAOK1 (human)) of 79% and a kinase still bound, per cent of control (GAK (human)) of 83%. For the same compound, the kinase still bound, per cent of control (CDK5 (human)) was 100%, the kinase still bound, per cent of control (STK33 (human)) was 100% and the kinase still bound, per cent of control (MINK1 (human)) was 100%.
